# System: HeLa cells
# Assay: Cell proliferation assay (XTT), cytostatic activity
# Format: cell-based
# Conditions: 72-h treatment, XTT cell proliferation kit
# Method: […] cells were seeded in 96-well plates and incubated in the presence or the absence of the indicated compounds at concentrations ranging from 10^-5 to 10^-12 M. The cytostatic activity was measured after 72-h treatments using the XTT (sodium 3'-[1-(phenylaminocarbonyl)-3,4-tetrazolium]-bis(4- methoxy-6-nitro)-benzenesulfonic acid hydrate) cell proliferation kit (Roche Molecular Biochemicals; Mannheim, Germany) following the manufacturer's specifications. Each condition was seeded in triplicate, and experiments were repeated three times to calculate IC values by non-linear regression fitting the data.
row,IC50 [nM],Structure (SMILES)
1,100,C=C(c1cc(Cl)nc(SC)c1)c1ccc2c(c1)c(C#N)cn2C [Compound 71]
2,> 1000,COc1cc(C(=NO)c2ccc3c(c2)c(C#N)cn3C)cc(SC)n1 [Compound 88]

row,Structure (SMILES),IC50 [nM]
1,COc1ccc(C(C)c2ccc3c(c2)c(C=NN)cn3C)c(OC)c1OC (stereo not drawn) [Compound 22],420

# Same assay, conditions: Homo sapiens, 72-h treatment, XTT cell proliferation kit
row,IC50 [nM],Structure (SMILES)
1,70,"C=C(c1cc(Cl)nc(SC)c1)c1ccc2c(c1)c(C=O)cn2C [Compound 68, 5-(1-(2-chloro-6-(methylsulfanyl)pyridin-4-yl)vinyl)-1-methyl-1H-indole-3-carbaldehyde]"
2,> 1000,"C=C(c1cc(Cl)nc(SC)c1)c1ccc2c(c1)c(C(N)=O)cn2C [Compound 70, 5-(1-(2-chloro-6-(methylsulfanyl)pyridin-4-yl)vinyl)-1-methyl-1H indole-3-carboxamide]"
3,80,"C=C(c1cc(Cl)nc(SC)c1)c1ccc2c(c1)c(C(=O)O)cn2C [Compound 72, 5-(1-(2-Chloro-6-(methylsulfanyl)pyridin-4-yl)vinyl)-1-methyl-1H-indole-3-carboxylic acid]"
4,200,"CSc1cc(C(=O)c2ccc3c(ccn3C)c2)cc(SC)n1 [Compound 73, (2,6-Bis(methylsulfanyl)pyridin-4-yl) (1-methyl-1H-indol-5-yl)methanone]"
5,500,"C=C(c1cc(SC)nc(SC)c1)c1ccc2c(ccn2C)c1 [Compound 74, 5-(1-(2,6-Bis(methylsulfanyl)pyridin-4-yl)vinyl)-1-methyl-1H-indole]"
6,> 1000,"CSc1cc(C(=O)c2ccc3c(c2)c(C=O)cn3C)cc(SC)n1 [Compound 76, 5-(2,6-bis(methylsulfanyl)isonicotinoyl)-1-methyl-1H-indole-3-carbaldehyde]"
7,100,"C=C(c1cc(SC)nc(SC)c1)c1ccc2c(c1)c(C=O)cn2C [Compound 77, 5-(1-(2,6-bis(methylsulfanyl)pyridin-4-yl)vinyl)-1-methyl-1H-indole-3-carbaldehyde]"
8,600,"C=C(c1cc(SC)nc(SC)c1)c1ccc2c(c1)c(C(N)=O)cn2C [Compound 78, 5-(1-(2,6-bis(methylsulfanyl)pyridin-4-yl)vinyl)-1-methyl-1H-indole-3-carboxamide]"
9,600,"C=C(c1cc(SC)nc(SC)c1)c1ccc2c(c1)c(C#N)cn2C [Compound 79, 5-(1-(2,6-bis(methylsulfanyl)pyridin-4-yl)vinyl)-1-methyl-1H-indole-3-carbonitrile]"
10,> 1000,"C=C(c1cc(SC)nc(SC)c1)c1ccc2c(c1)c(C(=O)O)cn2C [Compound 80, 5-(1-(2,6-Bis(methylsulfanyl)pyridin-4-yl)vinyl)-1-methyl-1H-indole-3-carboxylic acid]"
11,200,"COc1cc(C(=O)c2ccc3c(ccn3C)c2)cc(SC)n1 [Compound 81, (2-methoxy-6-(methylthio)pyridin-4-yl)(1-methyl-1H-indol-5-yl)methanone]"
12,600,"C=C(c1cc(OC)nc(SC)c1)c1ccc2c(ccn2C)c1 [Compound 82, 5-(1-(2-methoxy-6-(methylsulfanyl)pyridin-4-yl)vinyl)-1-methyl-1H-indole]"
13,200,"COc1cc(C(=NO)c2ccc3c(ccn3C)c2)cc(SC)n1 [Compound 83, (2-methoxy-6-(methylsulfanyl)pyridin-4-yl)(1-methyl-1H-indol-5-yl)methanone oxime]"
14,> 1000,"COc1cc(C(=O)c2ccc3c(c2)c(C=O)cn3C)cc(SC)n1 [Compound 84, 5-(2-methoxy-6-(methylsulfanyl)isonicotinoyl)-1-methyl-1H-indole-3-carbaldehyde]"
15,400,"C=C(c1cc(OC)nc(SC)c1)c1ccc2c(c1)c(C=O)cn2C [Compound 85, 5-(1-(2-methoxy-6-(methylsulfanyl)pyridin-4-yl)vinyl)-1-methyl-1H-indole-3-carbaldehyde]"
16,> 1000,"C=C(c1cc(OC)nc(SC)c1)c1ccc2c(c1)c(C(=O)O)cn2C [Compound 86, 5-(1-(2-methoxy-6-(methylsulfanyl)pyridin-4-yl)vinyl)-1-methyl-1H-indole-3-carboxylic acid]"
17,800,"COc1cc(C(=O)c2ccc3c(c2)c(C#N)cn3C)cc(SC)n1 [Compound 87, 5-(2-methoxy-6-(methylsulfanyl)isonicotinoyl)-1-methyl-1H-indole-3-carbonitrile]"
18,500,"CSc1cc(C(=O)c2ccc3c(ccn3C)c2)cc(N(C)C)n1 [Compound 89, (2-(dimethylamino)-6-(methylthio)pyridin-4-yl)(1-methyl-1H-indol-5-yl)methanone]"
19,200,"C=C(c1cc(SC)nc(N(C)C)c1)c1ccc2c(ccn2C)c1 [Compound 90, N,N-dimethyl-4-(1-(1-methyl-1H-indol-5-yl)vinyl)-6-(methylthio)pyridin-2-amine]"
20,600,"CSc1cc(C(=NO)c2ccc3c(ccn3C)c2)cc(N(C)C)n1 [Compound 91, (2-(Dimethylamino)-6-(methylthio)pyridin-4-yl)(1-methyl-1H-indol-5-yl)methanone oxime]"

# Second part, the compound before the results:
row,Structure (SMILES),IC50 [nM]
1,"COc1cc(C(=O)c2ccc3c(c2)c(C(=O)O)cn3C)cc(OC)c1OC [Compound 15, 1-Methyl-5-(3,4,5-trimethoxybenzoyl)-1H-indole-3-carboxylic acid]",7000
2,"C=C(c1cc(OC)c(OC)c(OC)c1)c1ccc2c(c1)c(C(=O)O)cn2C [Compound 16, 1-Methyl-5-(1-(3,4,5-trimethoxyphenyl)vinyl)-1H-indole-3-carboxylic acid]",> 10000
3,"C=C(c1cc(OC)c(OC)c(OC)c1)c1ccc2c(c1)c(CO)cn2C [Compound 17, 1-Methyl-5-[1-(3,4,5-trimethoxyphenyl)vinyl]-1H-indol-3-ylmethanol]",310
4,"C=C(c1cc(OC)c(OC)c(OC)c1)c1ccc2c(c1)c(C=NO)cn2C [Compound 19, 1-Methyl-5-[1-(3,4,5-trimethoxyphenyl)vinyl]-1H-indole-3-carbaldehyde oxime]",6.2
5,"C=C(c1ccc2c(c1)c(C=NO)cn2C)c1ccc(OC)c(OC)c1OC [Compound 20, 1-Methyl-5-[1-(2,3,4-trimethoxyphenyl)vinyl]-1H-indol-3-carbaldehyde oxime]",34
6,"C=C(c1cc(OC)c(OC)c(OC)c1)c1ccc2c(c1)c(C=NN)cn2C [Compound 21, (1-Methyl-5-[1-(3,4,5-trimethoxyphenyl)vinyl]-1H-indol-3-yl)methylene hydrazine]",38
7,"C=C(c1cc(OC)c(OC)c(OC)c1)c1ccc2c(c1)c(C#N)cn2C [Compound 23, 1-Methyl-5-[1-(3,4,5-trimethoxyphenyl)vinyl]-1H-indole-3-carbonitrile]",2.9
8,"C=C(c1ccc2c(c1)c(C#N)cn2C)c1ccc(OC)c(OC)c1OC [Compound 24, 1-Methyl-5-[1-(2,3,4-trimethoxyphenyl)vinyl]-1H-indole-3-carbonitrile]",32
9,"C=C(c1cc(OC)c(OC)c(OC)c1)c1ccc2c(c1)c(C(N)=O)cn2C [Compound 25, 1-Methyl-5-(1-(3,4,5-trimethoxyphenyl)vinyl)-1H-indole-3-carboxamide]",2.5
10,"COc1cc(/C=C\c2ccc3c(ccn3C)c2)cc(OC)c1OC [Compound 27, (Z)-1-Methyl-5-[2-(3,4,5-trimethoxyphenyl)vinyl)-1H-indole]",250
11,"Cn1ccc2cc(C(=O)c3cc(Cl)nc(Cl)c3)ccc21 [Compound 55, (2,6-dichloropyridin-4-yl)(1-methyl-1H-indol-5-yl)methanone]",800
12,"C=C(c1cc(Cl)nc(Cl)c1)c1ccc2c(ccn2C)c1 [Compound 56, 5-(1-(2,6-dichloropyridin-4-yl)vinyl)-1-methyl-1H-indole]",40
13,"Cn1cc(C=O)c2cc(C(=O)c3cc(Cl)nc(Cl)c3)ccc21 [Compound 57, 5-(2,6-dichloroisonicotinoyl)-1-methyl-1H-indole-3-carbaldehyde]",> 1000
14,"C=C(c1cc(Cl)nc(Cl)c1)c1ccc2c(c1)c(C=O)cn2C [Compound 58, 5-(1-(2,6-dichloropyridin-4-yl)vinyl)-1-methyl-1H-indole-3-carbaldehyde]",200
15,"Cn1cc(C=NO)c2cc(C(=NO)c3cc(Cl)nc(Cl)c3)ccc21 [Compound 59, 5-((2,6-dichloropyridin-4-yl)(hydroxyimino)methyl)-1-methyl-1H-indole-3-carbaldehyde oxime]",> 1000
16,"Cn1cc(C#N)c2cc(C(=NO)c3cc(Cl)nc(Cl)c3)ccc21 [Compound 60, 5-((2,6-dichloropyridin-4-yl)(hydroxyimino)methyl)-1-methyl-1H-indole-3-carbonitrile]",> 1000
17,"C=C(c1cc(Cl)nc(Cl)c1)c1ccc2c(c1)c(C=NO)cn2C [Compound 61, 5-(1-(2,6-dichloropyridin-4-yl)vinyl)-1-methyl-1H-indole-3-carbaldehyde oxime]",> 1000
18,"C=C(c1cc(Cl)nc(Cl)c1)c1ccc2c(c1)c(C#N)cn2C [Compound 62, 5-(1-(2,6-dichloropyridin-4-yl)vinyl)-1-methyl-1H-indole-3-carbonitrile]",80
19,"C=C(c1cc(Cl)nc(Cl)c1)c1ccc2c(c1)c(C(N)=O)cn2C [Compound 63, 5-(1-(2,6-dichloropyridin-4-yl)vinyl)-1-methyl-1H-indole-3-carboxamide]",50
20,"CSc1cc(C(=O)c2ccc3c(ccn3C)c2)cc(Cl)n1 [Compound 64, (2-chloro-6-(methylthio)pyridin-4-yl)(1-methyl-1H-indol-5-yl)methanone]",300
21,"C=C(c1cc(Cl)nc(SC)c1)c1ccc2c(ccn2C)c1 [Compound 65, 5-(1-(2-Chloro-6-(methylsulfanyl)pyridin-4-yl)vinyl)-1-methyl-1H-indole]",100
22,"CSc1cc(C(=O)c2ccc3c(c2)c(C=O)cn3C)cc(Cl)n1 [Compound 67, 5-(2-Chloro-6-(methylsulfanyl)isonicotinoyl)-1-methyl-1H indole-3-carbaldehyde]",> 1000
